The source made the active and inactive calls. No cut-off for these calls is given here.
Assays:
[1] = target: T1, Indoleamine 2,3-dioxygenase 1 (Homo sapiens, UniProt P14902); experiment: Inhibition of IDO1 (unknown origin) by cell based assay
Target sequence in this assay (P14902 whole entry): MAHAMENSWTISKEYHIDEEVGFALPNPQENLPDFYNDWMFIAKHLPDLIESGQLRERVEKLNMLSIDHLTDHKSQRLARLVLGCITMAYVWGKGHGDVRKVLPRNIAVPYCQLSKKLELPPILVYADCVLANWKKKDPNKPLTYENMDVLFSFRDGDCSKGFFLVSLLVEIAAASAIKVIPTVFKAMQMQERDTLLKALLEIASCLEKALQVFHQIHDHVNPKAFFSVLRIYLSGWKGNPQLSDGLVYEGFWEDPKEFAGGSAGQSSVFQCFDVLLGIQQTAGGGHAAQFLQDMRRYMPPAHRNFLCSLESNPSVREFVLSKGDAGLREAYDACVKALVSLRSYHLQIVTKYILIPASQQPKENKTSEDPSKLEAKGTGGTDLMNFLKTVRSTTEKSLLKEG

[2] = target: T1, Indoleamine 2,3-dioxygenase 1; experiment: Inhibition of IDO1 (unknown origin) by enzymatic assay
Target sequence in this assay (P14902 whole entry): as above

[3] = target: T1, Indoleamine 2,3-dioxygenase 1; experiment: Selectivity ratio of IC50 for inhibition of IDO1 (unknown origin) by enzymatic assay to IC50 for inhibition of IDO1 (unknown origin) by cell based assay
Target sequence in this assay (P14902 whole entry, looked up): as the sequence (P14902 whole entry) above

[4] = target: T1, Indoleamine 2,3-dioxygenase 1; experiment: Inhibition of full-length human IDO1 expressed in Escherichia coli Rosetta (DE3) using L-Trp substrate by HPLC analysis
Target sequence in this assay (P14902 whole entry): as above

[5] = target: T1, Indoleamine 2,3-dioxygenase 1; experiment: Binding affinity to human IDO1 expressed in Escherichia coli Rosetta (DE3) assessed induction of shift in Soret peak in phosphate buffer at 200 uM in presence of ascorbate and MB reductants measured over 60 mins by UV-vis absorption spectroscopy (reference value: […] nm)
Target sequence in this assay (P14902 whole entry, looked up): as the sequence (P14902 whole entry) above

[6] = target: T1, Indoleamine 2,3-dioxygenase 1; experiment: Binding affinity to human IDO1 expressed in Escherichia coli Rosetta (DE3) assessed complete protection against heme degradation at 200 uM in presence of ascorbate and MB reductants measured at 45 mins by UV-vis absorption spectroscopy
Target sequence in this assay (P14902 whole entry, looked up): as the sequence (P14902 whole entry) above

[7] = target: T1, Indoleamine 2,3-dioxygenase 1; experiment: Inhibition of full-length human IDO1 expressed in Escherichia coli Rosetta (DE3) assessed as reduction in kynurenine production at 40 to 200 uM pre-incubated for 120 mins before jump dilution with incubation medium containing L-Trp and further incubated for 20 mins by HPLC analysis
Target sequence in this assay (P14902 whole entry, looked up): as the sequence (P14902 whole entry) above

[8] = target: T1, Indoleamine 2,3-dioxygenase 1; experiment: (§1) Inhibition of full-length human IDO1 expressed in Escherichia coli Rosetta (DE3) assessed as enzyme activity by measuring kynurenine production at 40 to 200 uM pre-incubated for 120 mins in presence of ascorbate and MB reductants before jump dilution with incubation medium containing L-Trp and further incubated for 20 mins by HPLC analysis; design: scale not given: the % may be the effect or the level left
Target sequence in this assay (P14902 whole entry, looked up): as the sequence (P14902 whole entry) above

[9] = target: T1, Indoleamine 2,3-dioxygenase 1; experiment: as §1, with “reductants and catalase” for “reductants”
Target sequence in this assay (P14902 whole entry, looked up): as the sequence (P14902 whole entry) above

[10] = Dissociation constant, pKa of the compound; type: physicochemical
[11] = target: T1, Indoleamine 2,3-dioxygenase 1; settings: 20 uM
Description: Inhibition of full-length human IDO1 expressed in Escherichia coli Rosetta (DE3) assessed as reduction in kynurenine production at 20 uM pre-incubated for 120 mins before L-Trp addition by HPLC analysis relative to control

[12] = target: T1, Indoleamine 2,3-dioxygenase 1; settings: 40 uM
Description: Inhibition of full-length human IDO1 expressed in Escherichia coli Rosetta (DE3) assessed as reduction in kynurenine production at 40 uM pre-incubated for 120 mins before L-Trp addition by HPLC analysis relative to control

[13] = target: T1, Indoleamine 2,3-dioxygenase 1; settings: 20 to 40 uM
Description: Inhibition of full-length human IDO1 expressed in Escherichia coli Rosetta (DE3) assessed as reduction in kynurenine production at 20 to 40 uM pre-incubated for 120 mins before L-Trp addition in presence of ascorbate and MB reductants by HPLC analysis relative to control

[14] = target: T1, Indoleamine 2,3-dioxygenase 1; settings: 20 to 40 uM; remark: listed apart in the source
Description: Inhibition of full-length human IDO1 expressed in Escherichia coli Rosetta (DE3) assessed as reduction in kynurenine production at 20 to 40 uM pre-incubated for 120 mins before L-Trp addition in presence of ascorbate and MB reductants and catalase by HPLC analysis relative to control

[15] = target: T1, Indoleamine 2,3-dioxygenase 1; settings: 20 to 40 uM; remark: listed apart in the source
Description: Inhibition of full-length human IDO1 expressed in Escherichia coli Rosetta (DE3) assessed as reduction in kynurenine production at 20 to 40 uM pre-incubated for 120 mins before jump dilution with incubation medium containing L-Trp and further incubated for 20 mins by HPLC analysis

[16] = target: T1, Indoleamine 2,3-dioxygenase 1; experiment: Binding affinity to human IDO1 expressed in Escherichia coli Rosetta (DE3) assessed induction of shift in Soret peak in phosphate buffer at 200 uM measured over 4 hrs by UV-vis absorption spectroscopy
[17] = target: T1, Indoleamine 2,3-dioxygenase 1; experiment: Binding affinity to human IDO1 expressed in Escherichia coli Rosetta (DE3) assessed induction of shift in Soret peak in phosphate buffer at 200 uM in presence of ascorbate and MB reductants measured over 4 hrs by UV-vis absorption spectroscopy
[18] = target: T1, Indoleamine 2,3-dioxygenase 1; experiment: (§2) Inhibition of full-length human IDO1 expressed in Escherichia coli Rosetta (DE3) assessed as reduction in kynurenine production at 0.5 to 2.5 uM pre-incubated for 120 mins before jump dilution with incubation medium containing L-Trp and further incubated for 20 mins by HPLC analysis
[19] = target: T1, Indoleamine 2,3-dioxygenase 1; experiment: as §2, with “120 mins in presence of ascorbate and MB reductants before jump” for “120 mins before jump”
[20] = target: T1, Indoleamine 2,3-dioxygenase 1; experiment: as §2, with “120 mins in presence of ascorbate and MB reductants and catalase before jump” for “120 mins before jump”
[21] = target: T1, Indoleamine 2,3-dioxygenase 1; experiment: Inhibition of purified human recombinant IDO1 expressed in Escherichia coli assessed as reduction in kynurenine production incubated up to 90 mins using L-Trp substrate by Ehrlich's reagent based spectrophotometry
Target sequence in this assay (P14902 whole entry): as above

[22] = target: T1, Indoleamine 2,3-dioxygenase 1; experiment: Inhibition of IDO1 in IFNgamma-induced human HeLa cells incubated for 5 hrs by Ehrlich's reagent based assay; type: cell-based
Target sequence in this assay (P14902 whole entry): as above

[23] = target: T1, Indoleamine 2,3-dioxygenase 1; experiment: (§3) Inhibition of full-length human IDO1 expressed in Escherichia coli Rosetta (DE3) assessed as reduction in kynurenine production at 0.5 to 1 uM pre-incubated for 120 mins before jump dilution with incubation medium containing L-Trp and further incubated for 20 mins by HPLC analysis
[24] = target: T1, Indoleamine 2,3-dioxygenase 1; experiment: as §3, with “120 mins in presence of ascorbate and MB reductants before jump” for “120 mins before jump”
[25] = target: T1, Indoleamine 2,3-dioxygenase 1; experiment: as §3, with “120 mins in presence of ascorbate and MB reductants and catalase before jump” for “120 mins before jump”

Clc1ccc(Nc2cn[nH]n2)cc1
IC50 [1]: 0.023 µM
IC50 [2]: 11.3 µM
Ratio IC50 [3]: 500
IC50 [4]: 70 µM
Activity [5]: 425 nm
Activity [6]: inactive
inhibition [7]: Active
Activity [8]: 0%
inhibition [9]: inactive

Oc1ccc(Cl)cc1-c1c[nH]nn1
pKa [10]: 8.3

Nc1nonc1/C(=N/O)Nc1ccc(F)c(Cl)c1
inhibition [11]: 82%
inhibition [12]: 65%
inhibition [13]: 100%
inhibition [14]: 100%
inhibition [15]: Active

CC1=CC(=O)c2ccccc2C1=O
Activity [16]: inactive
Activity [17]: inactive
inhibition [18]: Active
inhibition [19]: Active
inhibition [20]: inactive

CC1(C)CCC2=C(O1)c1ccccc1C(=O)C2=O [LAPACHONE]
IC50 [21]: 0.44 µM
IC50 [22]: 1 µM
Activity [16]: inactive
Activity [17]: inactive
inhibition [23]: Active
inhibition [24]: Active
inhibition [25]: inactive
